In US10918733B2, “Lipopeptide- and lipoprotein-conjugates and its use” (HELMHOLTZ-ZENTRUM FUER INFEKTIONSFORSCHUNG GMBH, priority 2009, dated 2021):

Tests used:
[1] = tested on: Ova-specific CD4+CD25+Foxp3+ regulatory T cells; assay: Proliferation of T cells co-cultured with treated DC: regulatory T cells; assay type: cell-based, OTII mice; settings: DC incubated with 10 μg/mL for 24 h, co-culture 4 days
Protocol: (§1) T cell-mediated immune responses were investigated 96 h by measuring the proliferation of cells recovered from spleens after restimulation with BPPcysOva^mPEG. Non-Ag restimulated spleen cells were chosen as negative controls (FIG. 3). […] Taking into consideration that the BPPcysOva^mPEG has a promising effect on DC activation and maturation, next the capacity of these APC to stimulate the proliferation of antigen-specific CD8+ and CD4+ T cells was evaluated. Concentrations below 10^−8 M of BPPcysOva^mPEG were still able to induce an antigen specific proliferation of CD4+ T cells shown by the reduction of CFSE+ cells (FIGS. 4A-E).
(§2) FIG. 4: Proliferation of CD8+, CD4+ and regulatory T cells. DC were generated from bone marrow of C57BL/6 mice and incubated with 10 μg/mL of B) Ova C) Ova peptides, D) Ova in the presence of BPPcysMPEG and E) BPPcysOva^mPEG alone (A) Control) for 24 h. The following day, CD4+ T cells from spleens of OT2-tg animals or CD8+ T cells of OT1-tg animals were isolated. After staining with CFSE, CD8+, CD4+ T cells were co-cultured with adjuvant-treated DCs for 4 days. The decrease of CFSE-FITC expression due to cell division of CD8+ or CD4+ T cells were analysed by flow cytometric analysis. One representative experiment out of two is shown.

[2] = tested on: Ova-specific CD8+ T cells; assay: Proliferation of CFSE-stained T cells co-cultured with treated DC: CD8+ T cells; assay type: cell-based, OT1-tg mice; settings: DC incubated with 10 μg/mL for 24 h, co-culture 4 days
Protocol: as §1, §2

spleen cells = assay: Proliferation of spleen cells of immunized mice after in vitro restimulation with Ova, day 42 (Example 5); assay type: in vivo; settings: i.n., restimulation with Ova
Protocol: Experimental protocol: Spleens were removed and pooled for analysis of cellular immune responses. Cells were grown in RPMI 1640 supplemented with 10% fetal calf serum, 100 U/ml of penicillin, 50 μg/ml of streptomycin, 5×10^−5 M 2-mercaptoethanol and 1 mM L-glutamine (GIBCO BRL, Karlsruhe, Germany) and maintained at 37° C. in a humidified 5% CO2 atmosphere. Lymph node and spleen cell suspensions were adjusted to 5×10^6 cells/ml in complete medium, cells were seeded with 100 μl per well in a flat-bottomed 96-well microtiter plate (Nunc) and plates were incubated for 4 days in the presence of different concentrations of Ova. Each concentration was tested in triplicates. During the final 18 h of culture, 1 μCi of [^3H]thymidine (Amersham International, Freiburg, Germany) was added to each well. Cells were then harvested on paper filters (Filtermat A; Wallac, Freiburg, Germany) by using a cell harvester (Inotech, Wohlen, Switzerland), and the amount of incorporated [^3H]thymidine into the DNA of proliferating cells was determined by a β-scintillation counter (Wallac 1450, Micro-Trilux). The results are expressed as the arithmetic mean of [^3H]thymidine uptake in cpm.
T cell-mediated immune responses were investigated at day 42 by measuring the proliferation of cells recovered from spleens after in vitro restimulation with Ova. […]

Molecule | stimulation of proliferation of Ova-specific CD4+CD25+Foxp3+ regulatory T cells by treated DC [1] | stimulation of proliferation of Ova-specific CD8+ T cells by treated DC [2] | proliferative response of spleen cells, i.n. immunization (spleen cells)
CD4 peptide: Ova CD4 epitope peptide alone (KISQAVHAAHAEINEAG; UniProt P01012 323-339, looked up, fragment) [reference compound] | very efficiently | weak stimulation | 
LPS free Ova: EndoGrade Ovalbumin, Hyglos GmbH (protein, UniProt P01012 2-386, looked up, endotoxin-free, EndoGrade Ovalbumin, Hyglos GmbH) Ovalbumin: GSIGAASMEFCFDVFKELKVHHANENIFYCPIAIMSALAMVYLGAKDSTRTQINKVVRFDKLPGFGDSIEAQCGTSVNVHSSLRDILNQITKPNDVYSFSLASRLYAEERYPILPEYLQCVKELYRGGLEPINFQTAADQARELINSWVESQTNGIIRNVLQPSSVDSQTAMVLVNAIVFKGLWEKAFKDEDTQAMPFRVTEQESKPVQMMYQIGLFRVASMASEKMKILELPFASGTMSMLVLLPDEVSGLEQLESIINFEKLTEWTSSNVMEERKIKVYLPRMKMEEKYNLTSVLMAMGITDVFSSSANLSGISSAESLKISQAVHAAHAEINEAGREVVGSAEAGVDAASVSEEFRADHPFLFCIKHIATNAVLFFGRCVSP |  |  | failed to induce detectable cellular proliferation
